From patent US20220168307A1, “TREATMENT OF SMA” (Hoffmann-La Roche Inc., priority 2019, published 2022)
Where “and” joins values, the source holds several entries; their conditions need not be identical. Identical values can stand only once. Entries after “also recorded” stand apart in the source; their conditions may differ. Like-named read-outs stand apart in the source and are kept apart here.

Assays:
CYP2C9 [1] = target: T1, CYP2C9 (Homo sapiens, UniProt P11712); test: Time-dependent inhibition (IC50 shift) of CYP2C9 in human liver microsomes; type: in vitro ADME; conditions: risdiplam up to 12.5 μM
T1 sequence (P11712 whole entry): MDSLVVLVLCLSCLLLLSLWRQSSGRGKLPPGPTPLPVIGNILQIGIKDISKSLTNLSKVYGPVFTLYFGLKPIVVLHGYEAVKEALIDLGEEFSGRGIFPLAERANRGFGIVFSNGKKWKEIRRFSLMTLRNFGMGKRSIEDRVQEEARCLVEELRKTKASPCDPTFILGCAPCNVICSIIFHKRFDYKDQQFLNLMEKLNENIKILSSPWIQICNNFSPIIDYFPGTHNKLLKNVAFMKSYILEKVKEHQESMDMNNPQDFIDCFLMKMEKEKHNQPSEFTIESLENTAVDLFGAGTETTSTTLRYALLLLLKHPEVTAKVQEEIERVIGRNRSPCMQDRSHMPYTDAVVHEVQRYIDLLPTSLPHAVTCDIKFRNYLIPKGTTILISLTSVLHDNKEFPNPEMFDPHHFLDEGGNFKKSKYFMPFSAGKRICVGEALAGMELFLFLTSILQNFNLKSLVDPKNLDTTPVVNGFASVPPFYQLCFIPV
Method: (§1) Donors CMV negative for serology are unm
(§2) All incubations were conducted in duplicate.
(§3) % remaining=(C+I/C^−I)*100

CYP2C9 [2] = target: T1, CYP2C9; test: in vitro; conditions: pooled human liver microsomes, pH 7.4, probe diclofenac
CYP2C9 [3] = target: T1, CYP2C9; test: Direct inhibition of CYP2C9 (diclofenac) in human liver microsomes
CYP2C19 [4] = target: T2, CYP2C19 (Homo sapiens, UniProt P33261); test: Time-dependent inhibition (IC50 shift) of CYP2C19 in human liver microsomes; conditions: risdiplam up to 12.5 μM
T2 sequence (P33261 whole entry): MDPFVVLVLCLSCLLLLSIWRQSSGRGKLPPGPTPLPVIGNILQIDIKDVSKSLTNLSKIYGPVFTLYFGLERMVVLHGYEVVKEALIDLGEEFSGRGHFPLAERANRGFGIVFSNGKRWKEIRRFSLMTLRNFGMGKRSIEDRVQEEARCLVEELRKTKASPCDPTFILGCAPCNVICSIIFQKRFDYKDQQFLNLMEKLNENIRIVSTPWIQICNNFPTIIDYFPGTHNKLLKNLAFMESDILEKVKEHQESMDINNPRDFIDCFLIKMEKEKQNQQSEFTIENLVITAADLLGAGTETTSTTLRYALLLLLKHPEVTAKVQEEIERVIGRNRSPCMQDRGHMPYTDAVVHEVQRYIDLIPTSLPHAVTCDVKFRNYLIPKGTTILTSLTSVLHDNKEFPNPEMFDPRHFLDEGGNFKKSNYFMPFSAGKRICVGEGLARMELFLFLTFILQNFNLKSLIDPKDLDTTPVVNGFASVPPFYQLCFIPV

CYP1A2 = target: T3, CYP1A2 (Homo sapiens, UniProt P05177); test: biochemical
T3 sequence (P05177 1-516): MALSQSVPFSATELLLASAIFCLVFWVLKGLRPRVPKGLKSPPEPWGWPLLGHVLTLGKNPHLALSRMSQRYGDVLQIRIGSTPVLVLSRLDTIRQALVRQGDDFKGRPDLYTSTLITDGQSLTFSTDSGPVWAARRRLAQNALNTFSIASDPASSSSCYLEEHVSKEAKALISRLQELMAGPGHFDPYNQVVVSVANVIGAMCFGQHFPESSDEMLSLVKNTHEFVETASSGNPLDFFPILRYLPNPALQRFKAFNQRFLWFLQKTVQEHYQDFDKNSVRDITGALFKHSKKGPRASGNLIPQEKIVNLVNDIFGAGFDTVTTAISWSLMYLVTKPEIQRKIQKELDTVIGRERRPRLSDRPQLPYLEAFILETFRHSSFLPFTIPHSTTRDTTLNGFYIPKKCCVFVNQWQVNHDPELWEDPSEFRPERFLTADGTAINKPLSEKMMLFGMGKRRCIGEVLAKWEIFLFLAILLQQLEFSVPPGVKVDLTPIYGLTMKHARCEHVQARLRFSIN

CYP2D6 [5] = target: T4, CYP2D6 (Homo sapiens, UniProt P10635)
T4 sequence (P10635 whole entry): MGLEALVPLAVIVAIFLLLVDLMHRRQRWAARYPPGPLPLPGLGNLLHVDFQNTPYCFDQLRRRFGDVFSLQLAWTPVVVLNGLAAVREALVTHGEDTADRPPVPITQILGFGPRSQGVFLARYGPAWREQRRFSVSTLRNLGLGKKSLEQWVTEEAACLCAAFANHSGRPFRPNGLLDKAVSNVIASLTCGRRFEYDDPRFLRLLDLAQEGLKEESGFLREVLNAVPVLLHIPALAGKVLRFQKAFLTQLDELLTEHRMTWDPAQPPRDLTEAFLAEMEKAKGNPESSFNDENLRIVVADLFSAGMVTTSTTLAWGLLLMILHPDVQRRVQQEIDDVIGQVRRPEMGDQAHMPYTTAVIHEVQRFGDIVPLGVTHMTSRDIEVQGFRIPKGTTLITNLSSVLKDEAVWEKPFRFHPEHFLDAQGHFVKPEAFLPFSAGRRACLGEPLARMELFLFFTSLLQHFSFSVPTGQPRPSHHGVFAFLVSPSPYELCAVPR

CYP2C19 [6] = target: T2, CYP2C19; test: Direct inhibition of CYP2C19 ((S)-mephenytoin) in human liver microsomes
CYP3A4 [7] = target: T5, CYP3A4 (Homo sapiens, UniProt P08684); test: Direct inhibition of CYP3A4 (midazolam and testosterone) in human liver microsomes; type: in vitro ADME; design: rows headed: % Control activity at; substrate Midazolam; concentration not given; duplicates; % Control activity at; substrate Testosterone; % Remaining; other: direct; CYP3A4-Midazolam Activity; risdiplam 0.20 μM; risdiplam 0.10 μM; dupl; conditions: for % Remaining / maximal inhibition: direct; for maximal inhibition: risdiplam tested up to 12.5 μM; for activity: pH 7.4, direct inhibition, read-out: % Control activity at
T5 sequence (P08684 2-503): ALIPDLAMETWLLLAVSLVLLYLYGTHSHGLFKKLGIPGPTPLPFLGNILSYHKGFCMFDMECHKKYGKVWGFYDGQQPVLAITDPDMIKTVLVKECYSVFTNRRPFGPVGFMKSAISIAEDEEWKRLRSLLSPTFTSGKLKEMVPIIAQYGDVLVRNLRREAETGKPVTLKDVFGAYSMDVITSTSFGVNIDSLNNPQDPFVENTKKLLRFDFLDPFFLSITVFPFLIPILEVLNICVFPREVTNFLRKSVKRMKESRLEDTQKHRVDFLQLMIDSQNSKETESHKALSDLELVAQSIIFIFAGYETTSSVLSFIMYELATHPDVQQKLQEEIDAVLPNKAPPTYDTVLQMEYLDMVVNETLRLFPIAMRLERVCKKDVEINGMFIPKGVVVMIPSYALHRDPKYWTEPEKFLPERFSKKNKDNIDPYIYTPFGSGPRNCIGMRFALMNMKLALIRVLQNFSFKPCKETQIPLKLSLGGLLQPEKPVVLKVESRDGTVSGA

CYP2D6 [8] = target: T4, CYP2D6; test: Time-dependent inhibition (IC50 shift) of CYP2D6 in human liver microsomes; type: in vitro ADME; conditions: risdiplam up to 12.5 μM
Method: as §1, §2, §3

CYP3A4 [9] = target: T5, CYP3A4; test: in vitro; conditions: for % Remaining: duplicates; for IC50: human, microsomes, 30 min pre-incubation
Method: as §1, §2, §3

CYP2C19 [10] = target: T2, CYP2C19; test: in vitro; conditions: pooled human liver microsomes, pH 7.4, probe (S)-mephenytoin

Structure (SMILES): Cc1cn2nc(-c3cc(=O)n4cc(N5CCNC6(CC6)C5)ccc4n3)cc(C)c2n1 [risdiplam, 7-(4,7-diazaspiro[2.5]octan-7-yl)-2-(2,8-dimethylimidazo[1,2-b]pyridazin-6-yl)pyrido[1,2-a]pyrimidin-4-one]
- time-dependent inhibition (in words) (CYP2C9 [1]): did not show any significant reversible or time-dependent inhibition; also recorded: No significant reversible or time-dependent inhibition; also recorded: No significant time-dependent inhibition; also recorded: low potential to cause direct or time-dependent inhibition
- activity (CYP2C9 [2]): 83%
- % Control activity at (CYP2C9 [3]; direct inhibition, substrate Diclofenac, concentration not given, duplicates): 82%
- reversible (direct) inhibition (in words) (CYP2C9 [3]; risdiplam up to 12.5 μM): did not show any significant reversible or time-dependent inhibition; also recorded: No significant reversible or time-dependent inhibition; also recorded: No significant reversible inhibition; also recorded: low potential to cause direct or time-dependent inhibition
- time-dependent inhibition (in words) (CYP2C19 [4]): did not show any significant reversible or time-dependent inhibition; also recorded: No significant reversible or time-dependent inhibition; also recorded: No significant time-dependent inhibition; also recorded: low potential to cause direct or time-dependent inhibition
- IC50 (CYP1A2): > 12.5 µM
- % Control activity at (CYP2D6 [5]; direct inhibition, substrate Dextromethorphan, concentration not given, duplicates): 95%
- reversible (direct) inhibition (in words) (CYP2D6 [5]; risdiplam up to 12.5 μM): did not show any significant reversible or time-dependent inhibition; also recorded: No significant reversible or time-dependent inhibition; also recorded: No significant reversible inhibition; also recorded: low potential to cause direct or time-dependent inhibition
- % Control activity at (CYP2C19 [6]; direct inhibition, substrate (S)-Mephenytoin, concentration not given, duplicates): 97%
- reversible (direct) inhibition (in words) (CYP2C19 [6]; risdiplam up to 12.5 μM): did not show any significant reversible or time-dependent inhibition; also recorded: No significant reversible or time-dependent inhibition; also recorded: No significant reversible inhibition; also recorded: low potential to cause direct or time-dependent inhibition
- % Control activity at (CYP3A4 [7]; direct inhibition, substrate Testosterone, concentration not given, duplicates): 46%
- % Remaining (CYP3A4 [7]; CYP3A4-Midazolam Activity, risdiplam 0.10 μM, duplicates): 100% and 96%
- % Remaining (CYP3A4 [7]; CYP3A4-Midazolam Activity, risdiplam 0.20 μM, duplicates): 99% and 102%
- % Remaining (CYP3A4 [7]; CYP3A4-Midazolam Activity, risdiplam 0.50 μM, duplicates): 101% and 100%
- % Remaining (CYP3A4 [7]; CYP3A4-Midazolam Activity, risdiplam 1.3 μM, duplicates): 108% and 91%
- % Remaining (CYP3A4 [7]; CYP3A4-Midazolam Activity, risdiplam 3.2 μM, duplicates): 94% and 97%
- % Remaining (CYP3A4 [7]; CYP3A4-Midazolam Activity, risdiplam 8.0 μM, duplicates): 84% and 83%
- % Remaining (CYP3A4 [7]; CYP3A4-Midazolam Activity, risdiplam 12.5 μM, duplicates): 72%
- % Remaining (CYP3A4 [7]; CYP3A4-Testosterone Activity, risdiplam 0.10 μM, duplicates): 98%
- % Remaining (CYP3A4 [7]; CYP3A4-Testosterone Activity, risdiplam 0.20 μM, duplicates): 98% and 96%
- % Remaining (CYP3A4 [7]; CYP3A4-Testosterone Activity, risdiplam 0.50 μM, duplicates): 96% and 95%
- % Remaining (CYP3A4 [7]; CYP3A4-Testosterone Activity, risdiplam 1.3 μM, duplicates): 93% and 92%
- % Remaining (CYP3A4 [7]; CYP3A4-Testosterone Activity, risdiplam 3.2 μM, duplicates): 78% and 79%
- % Remaining (CYP3A4 [7]; CYP3A4-Testosterone Activity, risdiplam 8.0 μM, duplicates): 58%
- % Remaining (CYP3A4 [7]; CYP3A4-Testosterone Activity, risdiplam 12.5 μM, duplicates): 44% and 46%
- maximal inhibition (CYP3A4 [7]; midazolam as substrate): 28%
- maximal inhibition (CYP3A4 [7]; testosterone as substrate): 55%
- IC50 (CYP3A4 [7]; human, microsomes, pH 7.4, IC50, direct, CYP3A4-Testosterone Activity (6β-hydroxylation), testosterone 50 μM): 11 µM
- activity (CYP3A4 [7]; human, microsomes, substrate Midazolam, concentration not given, duplicates): 72%
- activity (CYP3A4 [7]; human, microsomes, substrate Testosterone, concentration not given, duplicates): 44%
- direct inhibition of CYP3A4/5 (in words) (CYP3A4 [7]; midazolam 1′-hydroxylase and testosterone 6β-hydroxylase, up to 12.5 μM): low potential to cause direct inhibition; also recorded: some inhibition
- time-dependent inhibition (in words) (CYP2D6 [8]): did not show any significant reversible or time-dependent inhibition; also recorded: No significant reversible or time-dependent inhibition; also recorded: No significant time-dependent inhibition; also recorded: low potential to cause direct or time-dependent inhibition
- % Remaining (CYP3A4 [9]; CYP3A4-Midazolam, minus NADPH, risdiplam pre-incubation 0.10 μM): 88% and 103%
- % Remaining (CYP3A4 [9]; CYP3A4-Midazolam, minus NADPH, risdiplam pre-incubation 0.20 μM): 99% and 103%
- % Remaining (CYP3A4 [9]; CYP3A4-Midazolam, minus NADPH, risdiplam pre-incubation 0.50 μM): 99% and 108%
- % Remaining (CYP3A4 [9]; CYP3A4-Midazolam, minus NADPH, risdiplam pre-incubation 1.3 μM): 99% and 110%
- % Remaining (CYP3A4 [9]; CYP3A4-Midazolam, minus NADPH, risdiplam pre-incubation 3.2 μM): 99% and 100%
- % Remaining (CYP3A4 [9]; CYP3A4-Midazolam, minus NADPH, risdiplam pre-incubation 8.0 μM): 95% and 106%
- % Remaining (CYP3A4 [9]; CYP3A4-Midazolam, minus NADPH, risdiplam pre-incubation 12.5 μM): 115% and 108%
- % Remaining (CYP3A4 [9]; CYP3A4-Midazolam, plus NADPH, risdiplam pre-incubation 0.10 μM): 101% and 105%
- % Remaining (CYP3A4 [9]; CYP3A4-Midazolam, plus NADPH, risdiplam pre-incubation 0.20 μM): 101% and 109%
- % Remaining (CYP3A4 [9]; CYP3A4-Midazolam, plus NADPH, risdiplam pre-incubation 0.50 μM): 94% and 109%
- % Remaining (CYP3A4 [9]; CYP3A4-Midazolam, plus NADPH, risdiplam pre-incubation 1.3 μM): 90% and 96%
- % Remaining (CYP3A4 [9]; CYP3A4-Midazolam, plus NADPH, risdiplam pre-incubation 3.2 μM): 60% and 64%
- % Remaining (CYP3A4 [9]; CYP3A4-Midazolam, plus NADPH, risdiplam pre-incubation 8.0 μM): 28% and 30%
- % Remaining (CYP3A4 [9]; CYP3A4-Midazolam, plus NADPH, risdiplam pre-incubation 12.5 μM): 22% and 21%
- % Remaining (CYP3A4 [9]; CYP3A4-Testosterone, minus NADPH, risdiplam pre-incubation 0.10 μM): 101% and 99%
- % Remaining (CYP3A4 [9]; CYP3A4-Testosterone, minus NADPH, risdiplam pre-incubation 0.20 μM): 94% and 93%
- % Remaining (CYP3A4 [9]; CYP3A4-Testosterone, minus NADPH, risdiplam pre-incubation 0.50 μM): 100% and 93%
- % Remaining (CYP3A4 [9]; CYP3A4-Testosterone, minus NADPH, risdiplam pre-incubation 1.3 μM): 102% and 95%
- % Remaining (CYP3A4 [9]; CYP3A4-Testosterone, minus NADPH, risdiplam pre-incubation 3.2 μM): 93% and 102%
- % Remaining (CYP3A4 [9]; CYP3A4-Testosterone, minus NADPH, risdiplam pre-incubation 8.0 μM): 90% and 88%
- % Remaining (CYP3A4 [9]; CYP3A4-Testosterone, minus NADPH, risdiplam pre-incubation 12.5 μM): 89%
- % Remaining (CYP3A4 [9]; CYP3A4-Testosterone, plus NADPH, risdiplam pre-incubation 0.10 μM): 97% and 95%
- % Remaining (CYP3A4 [9]; CYP3A4-Testosterone, plus NADPH, risdiplam pre-incubation 0.20 μM): 98% and 93%
- % Remaining (CYP3A4 [9]; CYP3A4-Testosterone, plus NADPH, risdiplam pre-incubation 0.50 μM): 94% and 92%
- % Remaining (CYP3A4 [9]; CYP3A4-Testosterone, plus NADPH, risdiplam pre-incubation 1.3 μM): 90% and 85%
- % Remaining (CYP3A4 [9]; CYP3A4-Testosterone, plus NADPH, risdiplam pre-incubation 3.2 μM): 63% and 62%
- % Remaining (CYP3A4 [9]; CYP3A4-Testosterone, plus NADPH, risdiplam pre-incubation 8.0 μM): 23% and 24%
- % Remaining (CYP3A4 [9]; CYP3A4-Testosterone, plus NADPH, risdiplam pre-incubation 12.5 μM): 13%
- IC50 (CYP3A4 [9]; pH 7.4, IC50, CYP3A4-Midazolam Inactivation, minus NADPH): > 12.5 µM
- IC50 (CYP3A4 [9]; pH 7.4, IC50, CYP3A4-Midazolam Inactivation, plus NADPH): 4.8 µM
- IC50 (CYP3A4 [9]; pH 7.4, IC50, CYP3A4-Testosterone Inactivation, minus NADPH): > 12.5 µM
- IC50 (CYP3A4 [9]; pH 7.4, IC50, CYP3A4-Testosterone Inactivation, plus NADPH): 4.1 µM
- activity (CYP2C19 [10]): 102%
